Data published in the NIST ThermoML archive (doi:10.1016/j.jct.2018.08.013).
Several values for one entry are separate records, joined by “and”; a condition that tells them apart may be missing. Identical values can stand only once.

What was measured:
[1] = xn = mol fraction of the nth substance listed; conditions: 298 K; 100 kPa; Crystal of intercomponent compound 1; X-ray diffraction; x2 = 0.501
[2] = specific heat capacity at constant pressure; xn = mol fraction of the nth substance listed; conditions: 100 kPa, Crystal of intercomponent compound 1, relaxation calorimetry, x2 = 0.501

[Se] [selenium] + [Ga]
Conditions | mass density [kg/m3]
[1] | 4995

[2]
Conditions | specific heat capacity
16.15 K | 11.99 J/K/kg
16.17 K | 12 J/K/kg
18.16 K | 16.65 J/K/kg and 16.64 J/K/kg
18.18 K | 16.69 J/K/kg
20.17 K | 21.87 J/K/kg
20.18 K | 21.87 J/K/kg
20.19 K | 21.91 J/K/kg
22.2 K | 27.43 J/K/kg and 27.5 J/K/kg
22.21 K | 27.42 J/K/kg
24.22 K | 33.32 J/K/kg and 33.29 J/K/kg
24.23 K | 33.28 J/K/kg
26.23 K | 39.37 J/K/kg and 39.38 J/K/kg
26.24 K | 39.4 J/K/kg
28.25 K | 45.37 J/K/kg and 45.38 J/K/kg and 45.39 J/K/kg
30.27 K | 51.28 J/K/kg and 51.24 J/K/kg
30.28 K | 51.39 J/K/kg
35.31 K | 66.34 J/K/kg and 66.36 J/K/kg and 66.53 J/K/kg
40.35 K | 80.84 J/K/kg and 80.98 J/K/kg and 81.11 J/K/kg
45.38 K | 95.31 J/K/kg
45.39 K | 94.97 J/K/kg
45.4 K | 95.04 J/K/kg
50.4 K | 109.56 J/K/kg
50.42 K | 108.96 J/K/kg
50.44 K | 108.89 J/K/kg
55.43 K | 122.81 J/K/kg
55.45 K | 122.01 J/K/kg
55.49 K | 122.14 J/K/kg
60.46 K | 135.73 J/K/kg
60.49 K | 134.99 J/K/kg
60.52 K | 134.92 J/K/kg
65.48 K | 148.37 J/K/kg
65.53 K | 147.43 J/K/kg
65.58 K | 147.3 J/K/kg
70.5 K | 160.95 J/K/kg
70.57 K | 159.6 J/K/kg
70.63 K | 159.47 J/K/kg
75.53 K | 172.38 J/K/kg
75.61 K | 170.97 J/K/kg
75.66 K | 170.77 J/K/kg
80.55 K | 184.09 J/K/kg
80.66 K | 182.27 J/K/kg
80.7 K | 182.34 J/K/kg
85.57 K | 194.78 J/K/kg
85.7 K | 192.56 J/K/kg
85.74 K | 192.9 J/K/kg
90.59 K | 204.73 J/K/kg
90.72 K | 202.45 J/K/kg
90.78 K | 202.18 J/K/kg
95.61 K | 213.21 J/K/kg
95.73 K | 211.33 J/K/kg
95.82 K | 210.32 J/K/kg
100.79 K | 218.86 J/K/kg and 218.59 J/K/kg
100.93 K | 219.87 J/K/kg
105.73 K | 227.87 J/K/kg
105.8 K | 226.59 J/K/kg
105.86 K | 225.85 J/K/kg
113.65 K | 238.83 J/K/kg
113.74 K | 237.36 J/K/kg
113.8 K | 236.08 J/K/kg
121.58 K | 248.59 J/K/kg
121.67 K | 246.97 J/K/kg
121.74 K | 245.83 J/K/kg
129.51 K | 257.33 J/K/kg
129.61 K | 255.45 J/K/kg
129.66 K | 254.51 J/K/kg
137.44 K | 264.59 J/K/kg
137.56 K | 262.58 J/K/kg and 263.32 J/K/kg
145.45 K | 269.91 J/K/kg
145.46 K | 268.03 J/K/kg
